The values that follow come from ChEMBL document CHEMBL1147915, “Carbonic anhydrase inhibitors. Inhibition of isoforms I, II, IV, VA, VII, IX, and XIV with sulfonamides incorporating fructopyranose-thioureido tails” (Bioorg Med Chem Lett, 2007).

One experiment concerns the target Carbonic anhydrase 9 (Homo sapiens, UniProt Q16790).
Experiment [1] relates to Mus musculus. As to the kind of experiment: Anticonvulsant activity in OF1 mouse at 50 mg/kg, ip after 2 hrs by MES test. It is filed as functional. The conditions noted are these: route intraperitoneal.
Experiment [2] has as its system Mus musculus. As to the kind of experiment: Anticonvulsant activity in OF1 mouse at 30 mg/kg, ip after 2 hrs by MES test. It is filed as functional. The settings on record: route intraperitoneal.

Description for Carbonic anhydrase 9: Inhibition of human recombinant CA9 after 15 mins by CO2 hydration stopped flow assay

For the compound `CC1(C)O[C@@H]2[C@@H](CO[C@@]3(CNC(=S)Nc4ccc(S(N)(=O)=O)cc4)OC(C)(C)O[C@@H]23)O1`, the Ki (commonly a dissociation constant, usually derived from enzyme kinetics or from competition with a known ligand) at Carbonic anhydrase 9 was 0.082 µM. The compound also came in with an Activity with Mus musculus [1] of 0%.
As to `CC1(C)O[C@@H]2[C@@H](CO[C@@]3(CNC(=S)Nc4cccc(S(N)(=O)=O)c4)OC(C)(C)O[C@@H]23)O1`, affinity on Carbonic anhydrase 9 was put at a Ki of 4.5 µM. Moreover, the Activity in the experiment on Mus musculus [1] is 0%.
For `CC1(C)O[C@@H]2[C@@H](CO[C@@]3(CNC(=S)Nc4ccc(S(N)(=O)=O)cc4Cl)OC(C)(C)O[C@@H]23)O1`, in that order: 0.134 µM and 0%.
For `CC1(C)O[C@@H]2[C@@H](CO[C@@]3(CNC(=S)Nc4ccc(S(N)(=O)=O)cc4F)OC(C)(C)O[C@@H]23)O1` the same measures were 0.11 µM and 87.5%.
In the experiment with Mus musculus [1], `CC1(C)O[C@@H]2[C@@H](CO[C@@]3(CNC(=S)NCCc4ccc(S(N)(=O)=O)cc4)OC(C)(C)O[C@@H]23)O1` returned an Activity of 0%.
`CC1(C)O[C@@H]2[C@@H](CO[C@@]3(CNC(=S)Nc4ccc(S(=O)(=O)NCc5ccc(S(N)(=O)=O)cc5)cc4F)OC(C)(C)O[C@@H]23)O1` returned an inhibitory constant (Ki) at Carbonic anhydrase 9 of 0.011 µM. The Activity in the experiment on Mus musculus [1] is reported as 20%.
In turn, `CC1(C)O[C@@H]2[C@@H](CO[C@@]3(CNC(=S)Nc4ccc(S(=O)(=O)Nc5nnc(S(N)(=O)=O)s5)cc4F)OC(C)(C)O[C@@H]23)O1` gave a Ki at Carbonic anhydrase 9 of 0.076 µM. In the experiment on Mus musculus [1], this compound came in with an Activity of 0%.
Compound `NC(=O)N1c2ccccc2C=Cc2ccccc21` [CARBAMAZEPINE] had an Activity in the experiment on Mus musculus [2] of 100%.
`O=C1NC(=O)C(c2ccccc2)(c2ccccc2)N1` [PHENYTOIN]: the Activity with Mus musculus [2] is 100%.
Take `CC1(C)O[C@@H]2[C@@H](CO[C@@]3(COS(N)(=O)=O)OC(C)(C)O[C@@H]23)O1` [TOPIRAMATE]: in the experiment on Mus musculus [1], the Activity came to 68.75%.
